In the supplement of paper PMC6045584:
± gives the standard deviation of the averaged measurements.

What was measured:
[1] = compound: Cc1nc(Nc2n[nH]c3c2CN(C(=O)N[C@H](CN(C)C)c2ccccc2)C3(C)C)c2sccc2n1; experiment: area under dose-response curve of surviving fraction (unscaled, Aref=0) (surviving fraction x log10(nM)); higher = more resistant; settings: exposure time: 5 days; dose range 0.5-1000 nM
How it was run: (§1)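 Tumour cell lines in 384-well plates were exposed to eight inhibitor concentrations, from 0.5 to 1000 nM, for five days, and viability was read by CellTiter-Glo luminescence in three screens per line. Signals were normalised to DMSO-only wells, and 3-parameter logistic regression in the drc R package fitted dose-response survival curves to the surviving fractions. Area under the curve is given as the unscaled activity area. That area is taken over log10 dose with Aref = 0.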

[2] = compound: O=C(NOCC1CC1)c1ccc(F)c(F)c1Nc1ccc(I)cc1Cl; experiment: as above; settings: exposure time: 5 days; dose range 0.5-1000 nM
How it was run: as §1

GEMCITABINE = compound: Nc1ccn([C@@H]2O[C@H](CO)[C@@H](O)C2(F)F)c(=O)n1 [GEMCITABINE]; experiment: as above; settings: exposure time: 5 days; dose range 0.5-1000 nM
How it was run: as §1

VINORELBINE = compound: CCC1=C[C@@H]2CN(C1)Cc1c([nH]c3ccccc13)[C@@](C(=O)OC)(c1cc3c(cc1OC)N(C)[C@H]1[C@@](O)(C(=O)OC)[C@H](OC(C)=O)[C@]4(CC)C=CCN5CC[C@]31[C@@H]54)C2 [VINORELBINE]; experiment: as above; settings: exposure time: 5 days; dose range 0.5-1000 nM
How it was run: as §1

ERLOTINIB = compound: C#Cc1cccc(Nc2ncnc3cc(OCCOC)c(OCCOC)cc23)c1 [ERLOTINIB]; experiment: as above; settings: exposure time: 5 days; dose range 0.5-1000 nM
How it was run: as §1

METHOTREXATE = compound: CN(Cc1cnc2nc(N)nc(N)c2n1)c1ccc(C(=O)N[C@@H](CCC(=O)O)C(=O)O)cc1 [METHOTREXATE]; experiment: as above; settings: exposure time: 5 days; dose range 0.5-1000 nM
How it was run: as §1

MK2206 = compound: NC1(c2ccc(-c3nc4ccn5c(=O)[nH]nc5c4cc3-c3ccccc3)cc2)CCC1 [MK2206]; experiment: surviving fraction relative to DMSO-only wells; higher = less growth inhibition; settings: exposure time: 5 days
How it was run: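 Viability values are CellTiter-Glo luminescence readings, given as surviving fraction against the median of DMSO-only wells. The readings were taken after 10 minutes at room temperature, following five days of continuous exposure to inhibitors at 0.5, 1, 5, 10, 50, 100, 500 and 1000 nM that began 24 hours after log-phase tumour cell lines were seeded at 250–500 cells per well in 384-well plates. Every line was screened three times and kept only if replicate Pearson r >0.7 and median Z' >0.3.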

Test System	area under dose-response curve [1]	area under dose-response curve [2]	area under dose-response curve (GEMCITABINE)	area under dose-response curve (VINORELBINE)	area under dose-response curve (ERLOTINIB)	area under dose-response curve (METHOTREXATE)	surviving fraction (MK2206; 0.5 nM)	surviving fraction (MK2206; 1 nM)	surviving fraction (MK2206; 5 nM)	surviving fraction (MK2206; 10 nM)	surviving fraction (MK2206; 50 nM)	surviving fraction (MK2206; 100 nM)	surviving fraction (MK2206; 500 nM)	surviving fraction (MK2206; 1000 nM)
C33A CERVIX	0.95	2.3	1.15	1.62	3.19	2.33	0.919 ± 0.03	0.917 ± 0.026	1.05 ± 0.085	0.929 ± 0.029	1.01 ± 0.063	0.925 ± 0.058	0.812 ± 0.084	0.817 ± 0.042
CAL72 BONE	1.77	3.52	1.4	2.14	3.5	2.39	1.1 ± 0.024	1.1 ± 0.11	1.12 ± 0.06	1.11 ± 0.1	1.12 ± 0.019	1.16 ± 0.096	1.06 ± 0.087	1.05 ± 0.053
G292 BONE	1.22	3.17	1.39	1.48	3.44	3.41	0.96 ± 0.031	1.01 ± 0.06	0.997 ± 0.033	0.992 ± 0.031	0.893 ± 0.041	0.833 ± 0.018	0.748 ± 0.054	0.724 ± 0.026
HUO3N1 BONE	2.38	3.35	1.51	2	3.54	2.8	1.03 ± 0.072	1.02 ± 0.045	1.02 ± 0.052	1.02 ± 0.051	0.897 ± 0.044	0.825 ± 0.036	0.67 ± 0.023	0.64 ± 0.014
LNCAP PROSTATE	0.726	2.93	1.22	1.23	3.2	2.36	0.974 ± 0.07	0.936 ± 0.075	0.87 ± 0.015	0.839 ± 0.092	0.529 ± 0.022	0.398 ± 0.0075	0.0787 ± 0.0097	0.071 ± 0.0017
SCC003 HEADNECK	1.57	2.83	1.57	1.98	3.14	2.41	1.09 ± 0.063	1.08 ± 0.049	1.07 ± 0.053	1.07 ± 0.14	1.03 ± 0.021	1.09 ± 0.12	0.884 ± 0.05	0.717 ± 0.068
